Calls of active or inactive are those of the source. The rule behind the calls is not given here.
Test system: Mus musculus
Test: Anticonvulsant activity in Swiss mouse assessed as protection against maximal electroshock-induced seizures at 300 mg/kg, ip pretreated for 0.25 hrs
Type: functional, organism-based
Settings: not given

Compound | Activity
CC1CC(=O)N(C(C)C(=O)N2CCN(c3cccc(Cl)c3Cl)CC2)C1=O (stereo not drawn) | inactive
CC(C(=O)N1CCN(c2ccccc2C(F)(F)F)CC1)N1C(=O)CC(C)(C)C1=O (stereo not drawn) | Active
CC1CC(=O)N(C(C)C(=O)N2CCN(C)CC2)C1=O (stereo not drawn) | inactive
CC(C(=O)N1CCN(c2ccccc2F)CC1)N1C(=O)CC(C)(C)C1=O (stereo not drawn) | inactive
CC(C(=O)N1CCN(c2cccc(Cl)c2Cl)CC1)N1C(=O)CC(C)(C)C1=O (stereo not drawn) | inactive
CC(C(=O)N1CCN(C)CC1)N1C(=O)CC(C)(C)C1=O (stereo not drawn) | inactive
CC(C(=O)N1CCN(c2ccccc2)CC1)N1C(=O)CC(C)(C)C1=O (stereo not drawn) | Active
CC1CC(=O)N(C(C)C(=O)N2CCN(c3ccc(C(F)(F)F)cc3)CC2)C1=O (stereo not drawn) | inactive

Test system: Mus musculus
Test: Anticonvulsant activity in Swiss mouse assessed as protection against maximal electroshock-induced seizures at 100 mg/kg, ip pretreated for 1 hr
Type: functional, organism-based
Settings: not given

Compound | Activity
CC(C(=O)N1CCN(c2ccccc2C(F)(F)F)CC1)N1C(=O)CC(C)(C)C1=O (stereo not drawn) | inactive
CC(C(=O)N1CCN(c2ccccc2)CC1)N1C(=O)CC(C)(C)C1=O (stereo not drawn) | inactive

Test system: Mus musculus
Test: Anticonvulsant activity in Swiss mouse assessed as protection against maximal electroshock-induced seizures at 300 mg/kg, ip pretreated for 0.5 hrs
Type: functional, organism-based
Settings: not given

Compound | Activity
CC1CC(=O)N(C(C)C(=O)N2CCN(c3cccc(Cl)c3Cl)CC2)C1=O (stereo not drawn) | inactive
CC(C(=O)N1CCN(c2ccccc2C(F)(F)F)CC1)N1C(=O)CC(C)(C)C1=O (stereo not drawn) | Active
CC1CC(=O)N(C(C)C(=O)N2CCN(C)CC2)C1=O (stereo not drawn) | inactive
CC(C(=O)N1CCN(c2ccccc2F)CC1)N1C(=O)CC(C)(C)C1=O (stereo not drawn) | inactive
CC(C(=O)N1CCN(c2cccc(Cl)c2Cl)CC1)N1C(=O)CC(C)(C)C1=O (stereo not drawn) | inactive
CC(C(=O)N1CCN(C)CC1)N1C(=O)CC(C)(C)C1=O (stereo not drawn) | inactive
CC(C(=O)N1CCN(c2ccccc2)CC1)N1C(=O)CC(C)(C)C1=O (stereo not drawn) | Active

Test system: Mus musculus
Test: Anticonvulsant activity in Swiss mouse assessed as protection against maximal electroshock-induced seizures at 100 mg/kg, ip pretreated for 2 hrs
Type: functional, organism-based
Settings: not given

Compound | Activity
CC(C(=O)N1CCN(c2ccccc2C(F)(F)F)CC1)N1C(=O)CC(C)(C)C1=O (stereo not drawn) | inactive
CC(C(=O)N1CCN(c2ccccc2)CC1)N1C(=O)CC(C)(C)C1=O (stereo not drawn) | inactive

Test system: Mus musculus
Test: Anticonvulsant activity in Swiss mouse assessed as protection against maximal electroshock-induced seizures at 300 mg/kg, ip pretreated for 1 hr
Type: functional, organism-based
Settings: not given

Compound | Activity
CC1CC(=O)N(C(C)C(=O)N2CCN(c3cccc(Cl)c3Cl)CC2)C1=O (stereo not drawn) | inactive
CC1CC(=O)N(C(C)C(=O)N2CCN(C)CC2)C1=O (stereo not drawn) | inactive
CC(C(=O)N1CCN(c2ccccc2F)CC1)N1C(=O)CC(C)(C)C1=O (stereo not drawn) | inactive
CC(C(=O)N1CCN(c2cccc(Cl)c2Cl)CC1)N1C(=O)CC(C)(C)C1=O (stereo not drawn) | inactive
CC(C(=O)N1CCN(C)CC1)N1C(=O)CC(C)(C)C1=O (stereo not drawn) | inactive

Test system: Mus musculus
Test: Anticonvulsant activity in ip dosed Swiss mouse assessed as protection against maximal electroshock-induced seizures at 0.25 hrs
Type: functional
Settings: not given

Compound | ED50
CC(C(=O)N1CCN(c2ccccc2C(F)(F)F)CC1)N1C(=O)CC(C)(C)C1=O (stereo not drawn) | > 130 mg/kg
CC(C(=O)N1CCN(c2ccccc2)CC1)N1C(=O)CC(C)(C)C1=O (stereo not drawn) | > 130 mg/kg

Test system: Mus musculus
Test: Toxicity in Swiss mouse assessed as death at 300 mg/kg, ip measured after 0.25 hrs
Type: organism-based
Settings: in vivo

Compound | Activity
CC1CC(=O)N(C(C)C(=O)N2CCN(c3ccc(C(F)(F)F)cc3)CC2)C1=O (stereo not drawn) | Toxic

Test system: Mus musculus
Test: Anticonvulsant activity in Swiss mouse assessed as protection against maximal electroshock-induced seizures at 300 mg/kg, ip pretreated for 2 hrs
Type: functional, organism-based
Settings: not given

Compound | Activity
CC1CC(=O)N(C(C)C(=O)N2CCN(c3cccc(Cl)c3Cl)CC2)C1=O (stereo not drawn) | inactive
CC1CC(=O)N(C(C)C(=O)N2CCN(C)CC2)C1=O (stereo not drawn) | inactive
CC(C(=O)N1CCN(c2ccccc2F)CC1)N1C(=O)CC(C)(C)C1=O (stereo not drawn) | inactive
CC(C(=O)N1CCN(c2cccc(Cl)c2Cl)CC1)N1C(=O)CC(C)(C)C1=O (stereo not drawn) | inactive
CC(C(=O)N1CCN(C)CC1)N1C(=O)CC(C)(C)C1=O (stereo not drawn) | inactive
CC(C(=O)N1CCN(c2ccccc2)CC1)N1C(=O)CC(C)(C)C1=O (stereo not drawn) | inactive
